For the experiment, the system named is P388 leukemia ip, CD2F1 mice, survival T/C. Kind of experiment: NCI In Vivo Anticancer Drug Screen. Data for tumor model P388 Leukemia (intraperitoneal) in CD2F1 (CDF1) mice. The settings on record: endpoint: median survival time, higher = longer survival. An outline of the steps: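 Mice carrying the transplanted tumor received test compound or vehicle. Survival was recorded in each group, and the value is the treated-group measurement divided by that of the vehicle-treated control group.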

Setting [1] is: dose: 50.0 mg/kg/injection, schedule: Q01DX005 (ip), vehicle: saline with Tween-80.
The mark [2] stands for this setting: dose: 100.0 mg/kg/injection, schedule: Q01DX005 (ip), vehicle: saline with Tween-80.
Where [3] appears, read: dose: 200.0 mg/kg/injection, schedule: Q01DX005 (ip), vehicle: saline with Tween-80.
[4] abbreviates: dose: 60.0 mg/kg/injection, schedule: Q01DX005 (ip), vehicle: saline with Tween-80.
[5] abbreviates: dose: 120.0 mg/kg/injection, schedule: Q01DX005 (ip), vehicle: saline with Tween-80.
[6] abbreviates: dose: 240.0 mg/kg/injection, schedule: Q01DX005 (ip), vehicle: saline with Tween-80.

“And” between values parts separate entries of the source, which are not always exact repeats. Identical values can stand only once. Inconclusive results and toxic doses are left out.

For the compound `CCC1(O)CC(OC2CC(N(C)C)C(OC3CC4OC5CC(=O)C(C)OC5OC4C(C)O3)C(C)O2)c2c(cc3c(c2O)C(=O)c2c(O)ccc(O)c2C3=O)C1C(=O)OC` (stereo not given), the T/C reads like this: (dose: 0.5 mg/kg/injection, schedule: Q04DX003 (ip), vehicle: other) 123 % of control; (dose: 0.5 mg/kg/injection, schedule: Q04DX003 (ip), vehicle: saline with Tween-80) 112 % of control and 110 % of control and 118 % of control; (dose: 0.5 mg/kg/injection, schedule: Q04DX003 (ip), vehicle: water) 113 % of control; (dose: 0.64 mg/kg/injection, schedule: Q04DX003 (ip), vehicle: water) 109 % of control; (dose: 1.0 mg/kg/injection, schedule: Q04DX003 (ip), vehicle: water) 119 % of control; (dose: 1.08 mg/kg/injection, schedule: Q04DX003 (ip), vehicle: water) 115 % of control. Besides, the T/C reads like this: (dose: 1.8 mg/kg/injection, schedule: Q04DX003 (ip), vehicle: water) 118 % of control; (dose: 1.94 mg/kg/injection, schedule: Q04DX003 (ip), vehicle: water) 118 % of control; (dose: 2.0 mg/kg/injection, schedule: Q04DX003 (ip), vehicle: saline with Tween-80) 170 % of control; (dose: 3.24 mg/kg/injection, schedule: Q04DX003 (ip), vehicle: water) 124 % of control; (dose: 5.0 mg/kg/injection, schedule: Q04DX003 (ip), vehicle: water) 114 % of control.
For the compound `S=C(Nc1ccc(Cl)cc1)SSC(Cl)(Cl)Cl`, the T/C runs as follows: (dose: 12.5 mg/kg/injection, schedule: Q01DX009 (ip), vehicle: saline with Tween-80) 91 % of control; (dose: 25.0 mg/kg/injection, schedule: Q01DX009 (ip), vehicle: saline with Tween-80) 100 % of control; (dose: 50.0 mg/kg/injection, schedule: Q01DX009 (ip), vehicle: saline + alcohol) 112 % of control; (dose: 50.0 mg/kg/injection, schedule: Q01DX009 (ip), vehicle: saline with Tween-80) 115 % of control.
For the compound `S=c1nc[nH]c2cc3cn[nH]c3cc12`, the T/C reads like this: under setting [1], 94 % of control; under setting [2], 96 % of control; under setting [3], 92 % of control.
Consider `CCOc1cc2c(cc1C(C)c1ccc(OC(C)C)cc1)OCO2` (stereo not given), for which the T/C runs as follows: (dose: 25.0 mg/kg/injection, schedule: Q01DX005 (ip), vehicle: saline with Tween-80) 108 % of control; under setting [1], 106 % of control; under setting [2], 103 % of control; under setting [3], 103 % of control.
Turning to `[Cu+].[NH-]CCCN=Cc1ccccc1O`, the T/C reads like this: (dose: 25.0 mg/kg/injection, schedule: Q01DX001 (ip), vehicle: saline sonified) 95 % of control; (dose: 50.0 mg/kg/injection, schedule: Q01DX001 (ip), vehicle: saline sonified) 105 % of control.
For `COc1ccc2c(=O)c(Cc3c(-c4ccccc4)[nH]c4ccccc34)coc2c1`, the T/C is 98 % of control under setting [4], 91 % of control under setting [5] and 90 % of control under setting [6].
On the same counts, the results for `N#Cc1c2c(c(=O)n3c1[nH]c1ccccc13)CCCC2` are 93 % of control, 94 % of control and 90 % of control.

Source of the values: PubChem BioAssay AID330 (DTP/NCI, 2004).
